Experimental data published in patent US20260049089A1, “KRAS INHIBITOR COMPOUND” (SHANGHAI APEIRON THERAPEUTICS COMPANY LIMITED, priority 2022, published 2026).
Read-outs that look alike come from different tables or passages of the source.

Tests used:
pERK in AGS cells = experiment: ERK phosphorylation cell assay, AGS; format: cell-based; conditions: 3 hours compound incubation, read-out: pERK AGS_IC50
Method: (§1) • Day 1: AGS cells were seeded into a 384-well cell culture plate and incubated overnight at 37° C. with 5% CO2 in a cell culture incubator. • Day 2: Compounds were added to the plate using an Echo550 liquid handler, followed by incubation at 37° C. with 5% CO2 in a cell culture incubator for 3 hours. Subsequently, the cells were fixed with paraformaldehyde, permeabilized with methanol, and blocked with blocking buffer. A primary antibody mixture (rabbit anti-pERK, mouse anti-GAPDH) was added, and the plate was incubated overnight at 4° C. • Day 3: The primary antibodies were removed, and a secondary antibody mixture (goat anti-rabbit 800CW, goat anti-mouse 680RD) was added. The plate was incubated at room temperature in the dark. After three washes with PBST, the plate was inverted and centrifuged for 1 minute. Fluorescence signal values were read using an Odyssey CLx imaging system.
(§2) [formula] • Negative control: DMSO • Positive control: 10 μM Reference • Fitted using XLFit 5.0 with the following parameters:
(§3) [formula] • X: Log of compound concentration • Y: Mean relative expression levels of p-ERK across replicates

pERK in AsPC-1 cells = experiment: ERK phosphorylation cell assay, AsPC-1; format: cell-based; conditions: read-out: pERK AsPC-1_IC50
Method: [Worded in the source for another cell line; this cell line is reported under the same test.] as §1, §2, §3

[1] = Homo sapiens, ASPC1, AsPC-1 cells

**Q.** [2H]C([2H])([2H])N1C(=O)CCCCc2c(F)ccc3cc(O)cc(c23)-c2c1cc1c(N3CCC[C@@](C)(O)C3)nc(OC[C@@]34CCCN3C[C@H](F)C4)nc1c2F [Example 41, 3,15-Difluoro-13-(((2R,7aS)-2-fluoro-tetrahydro-1H-pyrazin-7a(5H)-yl)methoxy)-17-hydroxy-11-((R)-3-hydroxy-3-methylpiperidin-1-yl)-9-(trideuteromethyl)-4,5,6,7-tetrahydronaphtho[1′,8′:4,5,6][1]azacycloundecino[2,3-g]quinazolin-8(9H)-one] was tested. Which IC50 (pERK in AGS cells; Homo sapiens, AGS, 3 h) did it give?
**A.** Its IC50 is 307 nM.

**Q.** And the IC50 (pERK in AsPC-1 cells; [1])?
**A.** The IC50 was 2790 nM.

**Q.** For C=C1CN2CCC[C@@]2(COc2nc(N3CCC[C@@](C)(O)C3)c3cc4c(c(F)c3n2)-c2cccc3ccc(F)c(c23)CCOCCN4)C1 [Example 53, (R)-1-(3,15-difluoro-13-(((S)-2-methylenetetrahydro-1H-pyrazin-7a(5H)-yl)methoxy)-4,5,8,9-tetrahydro-7H-naphtho[1′,8′:7,8,9][1]oxa[4]azacycloundeca[5,6-g]quinazoline-11-yl)-3-methylpiperidin-3-ol], which IC50 (pERK in AGS cells; Homo sapiens, AGS, 3 h) is on record?
**A.** The IC50 was 2180 nM.

**Q.** And the IC50 (pERK in AsPC-1 cells; [1])?
**A.** Its IC50 is 3300 nM.

**Q.** For O=C1NCCCc2c(F)ccc3cc(O)cc(c23)-c2c1cc1c(N3CC4CCC(C3)N4)nc(OC[C@@]34CCCN3C[C@H](F)C4)nc1c2F [Example 12, 10-((1R,5S)-3,8-diazabicyclo[3.2.1]oct-3-yl)-3,14-difluoro-12-(((2R,7aS)-2-fluorotetrahydro-1H-pyrazin-7a(5H)-yl)methoxy)-16-hydroxy-4,5,6,7-tetrahydro-8H-naphtho[1′,8′:5,6,7]acredo [3,4-g]quinazolin-8-one], which IC50 (pERK in AGS cells; Homo sapiens, AGS, 3 h) is on record?
**A.** Its IC50 is 5430 nM.

**Q.** And the IC50 (pERK in AsPC-1 cells; [1])?
**A.** The IC50 was over 10000 nM.

**Q.** CC1(O)CCCN(c2nc(OCC(F)(F)F)nc3c(F)c4c(cc23)NCCCCCc2c(F)ccc3cc(O)cc-4c23)C1 [Example 17B, (R)-3,15-difluoro-11-(3-hydroxy-3-methylpiperidin-1-yl)-13-(2,2,2-trifluoroethoxy)-4,5,6,7,8,9-hexahydro-naphtho[1′,8′:4,5,6111]azacycloundecino[2,3-g]quinazoline-17-ol] was tested. Which IC50 (pERK in AGS cells) did it give?
**A.** The IC50 was over 10000 nM.

**Q.** And the IC50 (pERK in AsPC-1 cells; AsPC-1 cells)?
**A.** Its IC50 is over 10000 nM.

**Q.** What does the source list for C=C1CN2CC(F)(F)CC2(COc2nc(N3CCC[C@@](C)(O)C3)c3cc4c(c(F)c3n2)-c2cc(O)cc3ccc(F)c(c23)CCCCCN4)C1 (single isomer, unassigned) [Example 57A]?
**A.** IC50 (pERK in AGS cells): 1140 nM; IC50 (pERK in AsPC-1 cells; [1]): > 10000 nM

**Q.** O=C1CCCCCc2c(F)ccc3cc(O)cc(c23)-c2c(cc3c(N4CC5CCC(C4)N5)nc(OC[C@@]45CCCN4C[C@H](F)C5)nc3c2F)N1 [Example 9A, 12-((1R,5S)-3,8-diazabicyclo[3.2.1]octan-3-yl)-3,16-difluoro-14-(((2R,7aS)-2-fluorotetrahydro-1H-pyrazin-7a(5H)-yl)methoxy)-18-hydroxy-5,6,7,8-tetrahydro-4H-naphtho[1′,8′:4,5,6][1]azacyclododecino[2,3-g]quinazolin-9(10H)-one] was tested. Which IC50 (pERK in AGS cells) did it give?
**A.** The IC50 was 687 nM.

**Q.** What about the IC50 (pERK in AsPC-1 cells; AsPC-1 cells) of the same compound?
**A.** Its IC50 is 1960 nM.

**Q.** What does the source list for C=C1CN2CC(=C)CC2(COc2nc(N3CCC[C@@](C)(O)C3)c3cc4c(c(F)c3n2)-c2cc(O)cc3ccc(F)c(c23)CCCCCN4)C1 [Example 31]?
**A.** IC50 (pERK in AGS cells; Homo sapiens, AGS, 3 h): 136 nM; IC50 (pERK in AsPC-1 cells; [1]): 225 nM

**Q.** What does the source list for O=C1CCCCCCCCc2c(F)ccc3cc(O)cc(c23)-c2c(cc3c(N4CC5CCC(C4)N5)nc(OCC45CCCN4CC(F)C5)nc3c2F)N1 [Example 10, 15-((1R,5S)-3,8-diazabicyclo[3.2.1]octan-3-yl)-3,19-difluoro-17-(((2R,7aS)-2-fluorotetrahydro-1H-pyrazin-7a(5H)-yl)methoxy)-21-hydroxy-4,5,6,7,8,9,10,11-octahydronaphtho[1′,8′:4,5,6][1]azacyclopentadecano[2,3-g]quinazolin-12(13H)-one]?
**A.** IC50 (pERK in AGS cells): > 10000 nM; IC50 (pERK in AsPC-1 cells; AsPC-1 cells): > 10000 nM

**Q.** With O=C1CCCc2c(F)ccc3cc(O)cc(c23)-c2c(cc3c(N4CC5CCC(C4)N5)nc(OCC(F)(F)F)nc3c2F)N1 [Example 15, 10-((1R,5S)-3,8-diazabicyclo[3.2.1]octan-3-yl)-3,14-difluoro-16-hydroxy-12-(2,2,2-trifluoroethoxy)-5,6-dihydro-4H-naphtho[1′,8′:4,5,6]azacycloundecino[2,3-g]quinazolin-7(8H)-one] as the compound, how does the IC50 (pERK in AGS cells; Homo sapiens, AGS, 3 h) read?
**A.** Its IC50 is over 10000 nM.

**Q.** How did the IC50 (pERK in AGS cells) turn out when C[C@@]1(O)CCCN(c2nc(OCC34CCCN3C[C@]3(C4)CC3(F)F)nc3c(F)c4c(cc23)NCCCCCc2c(F)ccc3cc(O)cc-4c23)C1 (single isomer, unassigned) [Example 24B] was run?
**A.** The IC50 was 1920 nM.

**Q.** What about the IC50 (pERK in AsPC-1 cells; AsPC-1 cells) of the same compound?
**A.** The IC50 was 7180 nM.

**Q.** For COC12CCC(COc3nc(N4CCC[C@@](C)(O)C4)c4cc5c(c(F)c4n3)-c3cc(O)cc4ccc(F)c(c34)CCCCCN5)(CC1)CC2 [Example 20A], which IC50 (pERK in AGS cells; Homo sapiens, AGS, 3 h) is on record?
**A.** Its IC50 is over 10000 nM.

**Q.** What about the IC50 (pERK in AsPC-1 cells; [1]) of the same compound?
**A.** The IC50 was over 10000 nM.

**Q.** Which results are given for Oc1cc2c3c(c(F)ccc3c1)CCCCNc1cc3c(N4CC5CCC(C4)N5)nc(OC[C@@]45CCCN4C[C@H](F)C5)nc3c(F)c1-2 [Example 2, 10-((1R,5S)-3,8-Diazabicyclo[3.2.1]octan-3-yl)-3,14-difluoro-12-(((2R,7aS)-2-fluorotetrahydro-1H-pyrazin-7a(5H)-yl)methoxy)-5,6,7,8-tetrahydro-4H-naphtho[1′,8′:4,5,6]acridin[2,3-g]quinazolin-16-ol]?
**A.** IC50 (pERK in AGS cells; Homo sapiens, AGS, 3 h): 154 nM; IC50 (pERK in AsPC-1 cells; [1]): 710 nM

**Q.** What does the source list for O=C1NCCCCCc2c(F)ccc3cc(O)cc(c23)-c2c1cc1c(N3CC4CCC(C3)N4)nc(OC[C@@]34CCCN3C[C@H](F)C4)nc1c2F [Example 14, 12-((1R,5S)-3,8-diazabicyclo[3.2.1]oct-3-yl)-3,16-difluoro-14-(((2R,7aS)-2-fluorotetrahydro-1H-pyrazin-7a(5H)-yl)methoxy)-18-hydroxy-4,5,6,7,8,9-hexahydro-10H-naphtho[1′,8′:5,6,7][1]azacyclododecano[3,4-g]quinazolin-10-one]?
**A.** IC50 (pERK in AGS cells; Homo sapiens, AGS, 3 h): 2770 nM; IC50 (pERK in AsPC-1 cells; [1]): 3840 nM

**Q.** What does the source list for O=C1CCCc2c(F)ccc3cc(O)cc(c23)-c2c(cc3c(N4CC5CCC(C4)N5)nc(OC[C@@]45CCCN4C[C@H](F)C5)nc3c2F)N1 [Example 1, 10-((1R,5S)-3,8-Diazabicyclo[3.2.1]octan-3-yl)-3,14-difluoro-12-(((2R,7aS)-2-fluorotetrahydro-1H-pyrazin-7a(5H)-yl)methoxy)-16-hydroxy-5,6-dihydro-4H-naphtho[1′,8′:4,5,6]acridin[2,3-g]quinazolin-7(8H)-one]?
**A.** IC50 (pERK in AGS cells; Homo sapiens, AGS, 3 h): 2150 nM; IC50 (pERK in AsPC-1 cells; [1]): 2450 nM

**Q.** For C[C@@]1(O)CCCN(c2nc(OCC34CCC(CC3)OC4)nc3c(F)c4c(cc23)NCCCCCc2c(F)ccc3cc(O)cc-4c23)C1 [Example 19], which IC50 (pERK in AGS cells; Homo sapiens, AGS, 3 h) is on record?
**A.** The IC50 was over 10000 nM.

**Q.** And the IC50 (pERK in AsPC-1 cells; [1])?
**A.** Its IC50 is over 10000 nM.

**Q.** Which results are given for “13-((2,2-difluoro-6-methylenetetrahydro-1H-pyrazin-7a(5H)-yl)methoxy)-3,15-difluoro-11-((R)-3-hydroxy-3-methylpiperidin-1-yl)-4,5,6,7,8,9-hexahydronaphtho[1′,8′:4,5,6][1]azacycloundecano[2,3-g]quinazolin-17-ol [Example 38]”?
**A.** IC50 (pERK in AGS cells): > 10000 nM; IC50 (pERK in AsPC-1 cells; AsPC-1 cells): > 10000 nM

**Q.** How did the IC50 (pERK in AGS cells; Homo sapiens, AGS, 3 h) turn out when C[C@@]1(O)CCCN(c2nc(OCC(F)(F)F)nc3c(F)c4c(cc23)NCCCCCc2c(F)ccc3cc(O)cc-4c23)C1 [Example 17A, (R)-3,15-difluoro-11-(3-hydroxy-3-methylpiperidin-1-yl)-13-(2,2,2-trifluoroethoxy)-4,5,6,7,8,9-hexahydro-naphtho[1′,8′:4,5,6111]azacycloundecino[2,3-g]quinazoline-17-ol] was run?
**A.** Its IC50 is 5270 nM.

**Q.** And the IC50 (pERK in AsPC-1 cells; [1])?
**A.** The IC50 was over 10000 nM.

**Q.** For C=C1CN2CCC[C@@]2(COc2nc(N3CCC[C@@](C)(O)C3)c3cc4c(c(F)c3n2)-c2cc(O)cc3ccc(F)c(c23)CCOCCN4)C1 (single isomer, unassigned) [Example 42C], which IC50 (pERK in AsPC-1 cells; AsPC-1 cells) is on record?
**A.** The IC50 was 101 nM.
